Among the data in ChEMBL document CHEMBL4321833, “Sugar Kick Prevents Memory Impairment” (J Med Chem, 2019) are IC50 and Papp values, retold here.

One data set addresses T1, Protein O-GlcNAcase (Homo sapiens, UniProt O60502).
T1 sequence (O60502 whole entry): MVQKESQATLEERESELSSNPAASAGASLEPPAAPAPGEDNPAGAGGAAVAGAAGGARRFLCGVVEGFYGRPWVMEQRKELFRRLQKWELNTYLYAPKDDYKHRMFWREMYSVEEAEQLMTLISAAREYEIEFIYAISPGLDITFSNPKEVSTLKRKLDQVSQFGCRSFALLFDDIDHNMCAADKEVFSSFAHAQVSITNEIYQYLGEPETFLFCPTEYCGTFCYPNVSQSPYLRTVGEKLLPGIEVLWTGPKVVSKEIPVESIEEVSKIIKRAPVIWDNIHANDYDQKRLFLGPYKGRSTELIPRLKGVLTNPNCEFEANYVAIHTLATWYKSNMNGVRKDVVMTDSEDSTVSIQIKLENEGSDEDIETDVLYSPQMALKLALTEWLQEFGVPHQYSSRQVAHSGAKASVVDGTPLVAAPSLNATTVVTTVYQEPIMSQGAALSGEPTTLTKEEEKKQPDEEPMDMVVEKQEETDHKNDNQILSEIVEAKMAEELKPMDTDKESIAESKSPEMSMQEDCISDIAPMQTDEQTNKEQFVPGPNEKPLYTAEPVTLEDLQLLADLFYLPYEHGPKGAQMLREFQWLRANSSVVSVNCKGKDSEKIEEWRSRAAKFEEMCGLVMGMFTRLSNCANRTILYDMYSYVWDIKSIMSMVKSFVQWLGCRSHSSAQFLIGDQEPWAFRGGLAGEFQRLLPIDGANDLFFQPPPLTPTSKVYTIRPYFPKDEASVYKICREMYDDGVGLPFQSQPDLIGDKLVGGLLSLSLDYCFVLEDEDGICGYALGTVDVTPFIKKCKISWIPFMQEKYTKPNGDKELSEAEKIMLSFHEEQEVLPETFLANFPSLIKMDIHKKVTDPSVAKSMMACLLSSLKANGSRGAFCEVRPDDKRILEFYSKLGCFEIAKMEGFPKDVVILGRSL
The data set is described as follows: Inhibition of human O-GlcNAcase.

Data set [1] in a line: Apparent permeability of the compound. The data set is classed as ADME. The settings on record: not told.

The compound `CCNC1=N[C@@H]2[C@@H](O)[C@H](O)[C@@H](C(F)F)O[C@@H]2S1` showed a half-inhibitory concentration (IC50) against Protein O-GlcNAcase of 7.9 nM. For the same compound, in data set [1], the apparent permeability (Papp) was found to be 6.4 ×10⁻⁶ cm/s.

Broadly, the IC50 is the concentration that gives 50% inhibition. In general, Papp refers to the rate of passage across a membrane or cell layer, normalised by area and donor concentration.
